# “Also recorded” adds a separate entry of the source.
# System: phospholipase C-γl
# Test: Effect of tyrosine kinase inhibitor on ATP-dependent stimulation of immunocaptured phospholipase C-γl catalytic activity ([3H]PtdIns(4,5)P2 hydrolysis)
# Format: biochemical
# Conditions: 50 μM genistein, 20 minutes, 35° C.; enzyme captured from rat hippocampal formation P2 extract; in the presence of CaMKII, PKC and PKA inhibitors
# Experimental: Anti-phospholipase C-γl antibodies were coated onto biotinylated anti-globulin immobilized on streptavidin at 200 ng of rabbit polyclonal antibody/100 μL per well. Each well was then incubated with 20 μg of rat hippocampal P2 extract overnight, and, subsequently, washed three times (5 minutes each) with room temperature PBS buffer. […]
# Phospholipase C-γl enzyme activity was quantified essentially as described in Weeber et al. (Neurobiology of Learning and Memory 76 (2001) 151-182). […] 300 μL of the supernatant containing the reaction product ([^3H]Ins(1,4,5)P3) was removed and quantified by liquid scintillation spectroscopy. Immune-complex-dependent activity was calculated by subtracting background [^3H]Ins(1,4,5)P3 (release present in normal rabbit IgG antibody control samples) from the activity measured in wells containing anti-phospholipase C-γl antibody. Data were calculated as nanomoles Ins(1,4,5)P3 product formed per minute, or per mg protein, or per minute per mg protein present in the extract from which the enzyme was affinity purified.
# We sought to determine whether the technique that we used for the affinity capture of phospholipase C-γl allowed for the detection of tyrosine kinase(s) that associate with the phospholipase C-γl. […] The wells were then rinsed with 1.25× phospholipase C assay buffer and the catalytic activity of the isozyme was determined. […]
smiles,measurement,value
O=c1c(-c2ccc(O)cc2)coc2cc(O)cc(O)c12 [genistein],ATP-dependent stimulation of phospholipase C-γl catalytic activity,blocks; also recorded: completely inhibited
